According to patent US20230303564A1, “PYRIMIDINE RING COMPOUND” (MEDSHINE DISCOVERY INC., priority 2020, published 2023):
pIC50: −log10 of the molar value.

Legend:
OVCAR-3 cells = assay: Cell activity test, anti-proliferation (CellTiter Glo), OVCAR-3; format: cell-based, human; conditions: OVCAR-3, 7 days of culture
Method: 2) Day 1: Laying Cell Plates
(6) 0.7 mL of cell suspension was pipetted into the counting cup, the cells were counted on ViCell XR, and the cell suspension was diluted separately with culture medium to the required cell concentration for laying cell plates: 1000/30 ul.
(7) Microplates (2 plates) were required, 100 uL of phosphate buffered saline was added to the peripheral wells of the 384-well plate, 30 uL of cell suspension was added to the other wells, and the cell plate was placed into incubator for culture.
(1) Compound preparation: the stock solution of the compound to be tested was 10 mM.
(2) The compound to be tested was diluted 3 times with DMSO for 10 gradients.
(2) The compound to be tested was diluted with culture medium, and the highest final concentration was 10 μM.
(4) 10 μL of the compound was pipetted into the 384-well plate, and then the cell plate was placed back into the incubator for culture.
4) Adding CTG and Reading the Plate
(1) After 7 days of culture, 50 ul CellTiter Glo was added to the cell plate, shaken for 10 minutes in the dark, and left at room temperature for 5 minutes.
(2) The plate was read on Envision with the program: US LUM 384 (CPS). The experiment was originally stored in the personal disk:
1. The mean and standard deviation of 0% inhibition (DMSO row, ZPE) and 100% inhibition (PBS row, HPE) were calculated;
2. Inhibition rate (%)=(1−(sample value-average value of 100% inhibition)/(average value of 0% inhibition-average value of 100% inhibition))*100;
3. The curve was fitted by GraphPad 8.0 software;

[1] = system: human ovarian cancer OVCAR-3 cells subcutaneous xenograft tumor; assay: In vivo efficacy study, OVCAR-3 subcutaneous xenograft tumor BALB/c nude mouse model; conditions: for Tumor volume (Day 0): Day 0 (at grouping), OVCAR-3 xenograft, BALB/c nude mice; for Tumor volume (Day 7): 10 mg/kg from day 0 to day 7; for Tumor volume (Day 14): 10 mg/kg from day 0 to day 14; for Tumor volume (Day 21): 10 mg/kg day 0 to day 14, 30 mg/kg from day 14 to day 21
Method: In vivo efficacy study of human ovarian cancer OVCAR-3 cells subcutaneous xenograft tumor BALB/c nude mouse model
Cell culture: Human ovarian cancer OVCAR-3 cells were monolayer cultured in vitro, the culture conditions were 10% fetal bovine serum, 100 U/mL Penicillin and 100 μg/mL Streptomycin were added in RPMI 1640 medium, cultured at 37° C. 5% CO2 incubator. Conventional digestion with trypsin-EDTA was performed for passage. When the cell saturation was 80%/90% and the number reached the required level, the cells were collected, counted, and inoculated.
Animals: BALB/c nude mice, female, 6-8 weeks old, weighed 18-22 grams. A total of 95 (42+ additional 53) animals were needed, provided by the Experimental Animal Management Department of Shanghai Institute of Family Planning Sciences (formerly Shanghai Sipulbichem).
Tumor inoculation: 0.2 mL (1×10^7) OVCAR-3 cells (with matrix glue, volume ratio of 1:1) were subcutaneously inoculated on the right back of each mouse, and the mice were grouped administrated when the average tumor volume reached about 150 mm^3.
Dosage and frequency of administration: Day 0 to Day 7, 10 mg/kg; Day 7 to Day 14, 10 mg/kg; Day 14 to Day 21, 30 mg/kg;
Experimental index: The experimental index was used to examine whether tumor growth was inhibited, delayed or cured. Tumor diameters were measured with vernier calipers twice a week. The calculation formula of tumor volume was: V=0.5a×b^2, wherein a and b represented the long and short diameters of the tumor, respectively.

CDK2/CyclinE1 = CDK2/CyclinE1 (Homo sapiens (Human), UniProt P24941); assay: CDK2/CyclinE1 enzyme activity test (ADP-Glo); format: biochemical; conditions: 150 μM ATP, 25° C. 60 minutes, read-out: CDK2/Cyclin E1 IC50
Method: CDK2/CyclinE1 Enzyme Reaction System
(§1) Enzymes, substrates, ATP, and inhibitors were diluted by kinase buffer in the kit. The compounds to be tested were diluted 5-fold with a multi-channel pipette to the eighth concentration, that is, from 50 μM to 0.65 nM, the concentration of DMSO was 5%, and a double-hole experiment was set up. 1 μL of each concentration gradient of inhibitors, 2 μL of CDK2/CyclinE1 enzyme (2 ng), 2 μL mixture of substrate and ATP (150 μM ATP, 0.1 μg/μL substrate) were added to the microplates, and the final concentration gradient of the compound was 10 μM to 0.13 nM. The reaction system was reacted at 25° C. for 60 minutes. After the reaction, 5 μL of ADP-Glo reagent was added to each well, the reaction was carried out at 25° C. for 40 minutes, after the reaction was completed, 10 μL of kinase detection reagent was added to each well, the reaction was carried out at 25° C. for 30 minutes, the multiple label analyzer was used to read the chemiluminescence with an integration time of 0.5 seconds.
(§2) The equation (Sample−Min)/(Max−Min)*100% was used to convert the raw data into inhibition rate, and the value of IC50 can be obtained by curve fitting with four parameters (obtained by log (inhibitor) vs. response-Variable slope mode in GraphPad Prism). The enzymatic inhibitory activity of the compounds of the present disclosure on CDK1/CyclinB1, CDK2/CyclinA2, CDK2/CyclinE1, CDK4/CyclinD1, CDK6/CyclinD1, CDK7/CyclinH/MAT1, CDK9/CyclinT1 was provided in Table 1.

CDK6/CyclinD1 = CDK6/CyclinD1 (Homo sapiens (Human), UniProt Q00534); assay: CDK6/CyclinD1 enzyme activity test (LANCE Ultra TR-FRET); format: biochemical; conditions: 250 μM ATP, 25° C. 120 minutes, read-out: CDK6/Cyclin D1 IC50
Method: CDK6/CyclinD1 Enzyme Reaction System
(§3) Preparation of Kinase Buffer:
(§4) The composition of the buffer: 50 mM of hydroxyethylpiperazine ethanesulfonic acid solution at pH 7.5, 1 mM of ethylenediaminetetraacetic acid, 10 mM of magnesium chloride, 0.01% Brij-35, and 2 mM of dithiothreitol.
(§5) Enzymes, substrate LANCE Ultra ULight™-4E-BP-1(Thr37146) Peptide, ATP, and inhibitors were diluted by kinase buffer.
(§6) The compounds to be tested were diluted 5-fold with a multi-channel pipette to the eighth concentration, that is, from 40 μM to 0.512 nM, the concentration of DMSO was 4%, and a double-hole experiment was set up. […] The reaction system was reacted at 25° C. for 120 minutes. After the reaction, 5 μL mixture of EDTA and 2× LANCE™ Detection Buffer (1:1) were added to each well, the reaction was carried out at 25° C. for 5 minutes, after the reaction was completed, 5 μL of LANCE Ultra Eu-anti-P-4E-BP1(Thr37MS) (4 nM) was added to each well, the reaction was carried out at 25° C. for 60 minutes, the reaction signal was detected by Nivo instrument according to the principle of time-resolved fluorescence resonance energy transfer.
as §2

CDK4/CyclinD1 = CDK4/CyclinD1 (Homo sapiens (Human), UniProt P11802); assay: CDK4/CyclinD1 enzyme activity test (LANCE Ultra TR-FRET); format: biochemical; conditions: 350 μM ATP, 25° C. 120 minutes, read-out: CDK4/Cyclin D1 IC50
Method: CDK4/CyclinD1 Enzyme Reaction System
as §3, §4, §5, §6, §2

CDK2/CyclinA2 = CDK2/CyclinA2 (Homo sapiens (Human), UniProt P24941); assay: CDK2/CyclinA2 enzyme activity test (ADP-Glo); format: biochemical; conditions: 50 μM ATP, 25° C. 60 minutes, read-out: CDK2/Cyclin A2 IC50
Method: CDK2/CyclinA2 Enzyme Reaction System
as §1, with “CDK2/CyclinA2” for “CDK2/CyclinE1”, “(1.6” for “(2”, “(50” for “(150”, “seconds” for “seconds.”
as §2

CDK1/CyclinB1 = CDK1/CyclinB1 (Homo sapiens (Human), UniProt P06493); assay: CDK1/CyclinB1 enzyme activity test (ADP-Glo); format: biochemical; conditions: 25 μM ATP, 25° C. 120 minutes, read-out: CDK1/Cyclin B IC50
Method: CDK1/CyclinB1 Enzyme Reaction System
as §1, with “CDK1/CyclinB1” for “CDK2/CyclinE1”, “(12.5” for “(2”, “(25” for “(150”, “adenosine triphosphate, 0.2” for “ATP, 0.1”, “120” for “60”
as §2

CDK9/CyclinT1 = CDK9/CyclinT1 (Homo sapiens (Human), UniProt P50750); assay: CDK9/CyclinT1 enzyme activity test (ADP-Glo); format: biochemical; conditions: 100 μM ATP, 25° C. 120 minutes, read-out: CDK 9/Cyclin T1 IC50
Method: CDK9/CyclinT1 Enzyme Reaction System
as §1, with “of CDK9/CyclinT1” for “of CDK2/CyclinE1”, “enzyme (4” for “enzyme (2”, “ATP (100” for “ATP (150”, “ATP, 0.2” for “ATP, 0.1”, “for 120” for “for 60”
as §2

[2] = Pharmacokinetic evaluation in CD-1 (ICR) mice, oral; format: in vivo, mouse; conditions: male CD-1 (ICR) mice, oral 5 mg/kg, plasma
Method: Experimental Scheme of Compounds 18, 19 and 20
The healthy adult male CD-1 (ICR) mice used in this study were purchased from Pinghu Weitong Lihua Experimental Animal Technology Co., Ltd.
0.300 mL of the stock solution was measured and vortexed for 2 minutes to obtain a homogeneous suspension at a concentration of 1 mg/mL, and the administration vehicle was 1% HPMC in water.
Two male CD-1 (ICR) mice were given 5 mg/kg of the compound to be tested by intragastric administration.
The blood of two animals was collected at each time point by serial blood collection. 30 μL of whole blood was collected respectively at 0.25, 0.5, 1, 2, 4, 8, and 24 hours after administration. The whole blood was placed in an anticoagulant tube, centrifuged at 3200 g for 10 minutes at 4° C., plasma was prepared and stored at −60° C. or lower. The drug concentration in plasma was determined by LC/MS-MS.

CDK6/CyclinD1, sequence (Q00534 whole entry): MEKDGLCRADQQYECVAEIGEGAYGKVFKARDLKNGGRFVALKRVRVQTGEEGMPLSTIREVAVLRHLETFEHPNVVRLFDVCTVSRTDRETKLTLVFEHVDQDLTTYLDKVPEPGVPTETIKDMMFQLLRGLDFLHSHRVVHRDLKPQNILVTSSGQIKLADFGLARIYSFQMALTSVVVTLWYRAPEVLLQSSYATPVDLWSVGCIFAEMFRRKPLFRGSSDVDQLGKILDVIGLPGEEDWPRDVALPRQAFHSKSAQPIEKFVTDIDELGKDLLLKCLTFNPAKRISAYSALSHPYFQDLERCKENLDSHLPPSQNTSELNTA
CDK6/CyclinD1, sequence (P24385 whole entry partner): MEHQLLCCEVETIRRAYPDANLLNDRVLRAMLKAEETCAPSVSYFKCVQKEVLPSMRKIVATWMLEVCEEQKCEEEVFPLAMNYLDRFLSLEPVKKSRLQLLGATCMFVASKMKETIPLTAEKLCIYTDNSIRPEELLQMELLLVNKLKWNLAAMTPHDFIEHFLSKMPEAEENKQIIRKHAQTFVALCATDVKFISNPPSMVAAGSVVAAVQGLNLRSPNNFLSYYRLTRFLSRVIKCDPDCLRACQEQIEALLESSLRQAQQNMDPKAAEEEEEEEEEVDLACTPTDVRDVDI
CDK4/CyclinD1, sequence (P11802 whole entry): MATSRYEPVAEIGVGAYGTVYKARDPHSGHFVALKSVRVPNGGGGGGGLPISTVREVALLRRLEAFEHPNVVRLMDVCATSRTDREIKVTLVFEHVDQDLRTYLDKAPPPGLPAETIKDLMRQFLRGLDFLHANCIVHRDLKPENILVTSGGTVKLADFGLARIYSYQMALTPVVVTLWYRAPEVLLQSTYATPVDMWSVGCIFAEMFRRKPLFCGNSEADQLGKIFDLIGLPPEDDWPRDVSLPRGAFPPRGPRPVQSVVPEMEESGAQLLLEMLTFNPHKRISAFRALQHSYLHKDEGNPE
CDK4/CyclinD1, sequence (P24385 whole entry partner): as the sequence (P24385 whole entry partner) above
CDK1/CyclinB1, sequence (P06493 whole entry): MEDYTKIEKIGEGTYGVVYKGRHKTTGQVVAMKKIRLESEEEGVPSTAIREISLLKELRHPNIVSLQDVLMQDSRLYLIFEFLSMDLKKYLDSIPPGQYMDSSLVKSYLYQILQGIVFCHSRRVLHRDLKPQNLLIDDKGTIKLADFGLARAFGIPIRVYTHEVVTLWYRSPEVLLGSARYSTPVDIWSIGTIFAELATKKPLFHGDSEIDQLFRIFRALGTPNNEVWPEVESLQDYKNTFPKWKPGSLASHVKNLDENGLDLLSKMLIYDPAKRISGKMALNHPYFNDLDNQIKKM
CDK1/CyclinB1, sequence (P14635 whole entry partner): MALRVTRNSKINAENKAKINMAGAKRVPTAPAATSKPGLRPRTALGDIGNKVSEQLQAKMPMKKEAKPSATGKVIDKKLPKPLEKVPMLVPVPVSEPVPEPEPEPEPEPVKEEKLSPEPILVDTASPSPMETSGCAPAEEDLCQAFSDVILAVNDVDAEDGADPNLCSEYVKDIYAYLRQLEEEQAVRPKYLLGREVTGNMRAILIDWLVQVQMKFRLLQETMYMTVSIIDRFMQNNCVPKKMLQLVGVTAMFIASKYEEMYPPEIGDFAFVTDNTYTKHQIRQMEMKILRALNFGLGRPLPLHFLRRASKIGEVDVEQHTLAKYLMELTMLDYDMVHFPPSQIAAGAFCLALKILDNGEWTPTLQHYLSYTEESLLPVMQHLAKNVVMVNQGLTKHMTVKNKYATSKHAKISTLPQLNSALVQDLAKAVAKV
CDK9/CyclinT1, sequence (P50750 whole entry): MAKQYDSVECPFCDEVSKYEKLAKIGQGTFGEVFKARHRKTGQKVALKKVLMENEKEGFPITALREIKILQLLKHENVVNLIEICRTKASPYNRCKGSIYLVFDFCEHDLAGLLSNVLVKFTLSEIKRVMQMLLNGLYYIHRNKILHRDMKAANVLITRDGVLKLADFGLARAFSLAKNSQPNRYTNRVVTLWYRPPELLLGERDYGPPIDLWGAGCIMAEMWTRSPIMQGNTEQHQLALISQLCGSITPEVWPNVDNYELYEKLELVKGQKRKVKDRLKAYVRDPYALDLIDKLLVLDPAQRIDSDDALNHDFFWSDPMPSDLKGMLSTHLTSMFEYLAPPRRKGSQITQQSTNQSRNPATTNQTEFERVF
CDK9/CyclinT1, sequence (O60563 whole entry partner): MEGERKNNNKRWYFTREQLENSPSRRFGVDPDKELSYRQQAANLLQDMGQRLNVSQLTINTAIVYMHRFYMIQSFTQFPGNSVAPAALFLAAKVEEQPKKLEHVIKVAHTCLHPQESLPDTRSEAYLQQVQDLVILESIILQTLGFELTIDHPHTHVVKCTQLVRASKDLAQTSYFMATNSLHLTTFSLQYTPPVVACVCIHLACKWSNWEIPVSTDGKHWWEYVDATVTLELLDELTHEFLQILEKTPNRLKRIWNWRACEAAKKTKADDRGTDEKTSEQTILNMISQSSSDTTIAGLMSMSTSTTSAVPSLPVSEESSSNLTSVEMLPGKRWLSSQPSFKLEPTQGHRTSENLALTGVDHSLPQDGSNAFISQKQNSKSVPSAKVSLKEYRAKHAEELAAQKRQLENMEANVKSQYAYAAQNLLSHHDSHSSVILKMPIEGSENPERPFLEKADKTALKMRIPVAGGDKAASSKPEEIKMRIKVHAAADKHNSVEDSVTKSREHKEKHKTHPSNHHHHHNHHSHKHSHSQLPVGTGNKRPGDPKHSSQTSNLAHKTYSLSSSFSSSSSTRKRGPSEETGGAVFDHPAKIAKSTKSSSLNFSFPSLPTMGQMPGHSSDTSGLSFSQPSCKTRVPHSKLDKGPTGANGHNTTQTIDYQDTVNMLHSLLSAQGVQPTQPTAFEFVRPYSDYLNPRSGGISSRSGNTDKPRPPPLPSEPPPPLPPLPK

Row | SMILES | pIC50 (CDK2/CyclinE1) | pIC50 (CDK6/CyclinD1) | pIC50 (CDK4/CyclinD1) | pIC50 (CDK2/CyclinA2) | pIC50 (CDK1/CyclinB1) | pIC50 (CDK9/CyclinT1) | pIC50 (OVCAR-3 cells) | Tumor volume (Day 0) [1] [mm^3] | Tumor volume (Day 7) [1] [mm^3] | Tumor volume (Day 14) [1] [mm^3] | Tumor volume (Day 21) [1] [mm^3] | Oral exposure AUC0-t [2] [µM·h]
1 | C[C@@H]1CCCN1c1nc(C(F)F)cc2cnc(NC3CCN(S(C)(=O)=O)CC3)nc12 [Compound 25] | 8.40 | 9.34 |  |  |  |  | > 9.00 | 151 | 226 | 371 | 611 | 
2 | C[C@@]1(O)CCC[C@H]1Nc1nccc2cnc(NC3CCN(S(C)(=O)=O)CC3)nc12 [Compound 1] | 8.78 | 8.64 | 8.41 | 9.25 | 8.57 |  |  |  |  |  |  | 
3 | CC(Nc1nc(C(F)F)cc2cnc(NC3CCN(S(C)(=O)=O)CC3)nc12)C(F)(F)F (stereo not shown) [Compound 18] | 8.33 | 8.88 | 8.81 |  |  |  | 7.77 | 151 | 233 | 393 | 529 | 2.365
4 | C[C@@]1(O)CCC[C@H]1Nc1nc(C(F)F)cc2cnc(NC3CCN(S(C)(=O)=O)CC3)nc12 [Compound 14] | 8.38 | 8.77 | 8.59 | 8.90 |  |  |  |  |  |  |  | 

Continued, in another order:

Row | pIC50 (CDK2/CyclinE1) | pIC50 (CDK6/CyclinD1) | pIC50 (CDK4/CyclinD1) | pIC50 (CDK2/CyclinA2) | pIC50 (CDK1/CyclinB1) | pIC50 (CDK9/CyclinT1) | SMILES | pIC50 (OVCAR-3 cells) | Tumor volume (Day 0) [1] [mm^3] | Tumor volume (Day 7) [1] [mm^3] | Tumor volume (Day 14) [1] [mm^3] | Tumor volume (Day 21) [1] [mm^3] | Oral exposure AUC0-t [2] [µM·h]
5 |  | 8.81 | 8.97 | 9.28 |  |  | Cc1cc2cnc(NC3CCN(S(C)(=O)=O)CC3)nc2c(N[C@@H]2CCC[C@@]2(C)O)n1 (racemic) [Compound 6] |  |  |  |  |  | 
6 | 8.36 | 9.47 | 9.34 |  | 8.07 | 7.82 | CS(=O)(=O)N1CCC(Nc2ncc3cc(C(F)F)nc(N[C@H]4CCCC4(F)F)c3n2)CC1 (single isomer, unassigned) [Compound 21] | 7.82 |  |  |  |  | 
7 |  | 8.83 | 8.82 | 9.57 |  |  | CS(=O)(=O)N1CCC(Nc2ncc3ccnc(NC4CCCC4)c3n2)CC1 [Compound 4] |  |  |  |  |  | 
